Source: patent US20250091994A1, “RAS/RAF BINDING INHIBITOR COMPOUND” (NATIONAL UNIVERSITY CORPORATION KOBE UNIVERSITY, priority 2021, published 2025)

Tests used:
[1] = system: Vemurafenib-resistant malignant melanoma cells A375R (BRafV600E); assay: Cell growth inhibition, drug-resistant malignant melanoma A375R; assay type: cell-based; conditions: Homo sapiens, in the presence of 1 μM PLX (Vemurafenib), 72 hours
Description: The human malignant melanoma cell lines A375 and HT 144, each having BRafV600E mutation, were cultured in a medium containing 10% FBS at 37° C. in the presence of 5% CO2. At the time point in which the cells became confluent, 1 μM Vemurafenib, a BRaf inhibitor, was added to the medium, and the cells were then cultured in the presence of Vemurafenib for 1 month or more (during which the medium was exchanged every 1 week), so as to acquire Vemurafenib-resistant malignant melanoma cells A375R and HT 144R. The resulting resistant cells were suspended in a medium containing 10% FBS, and then seeded on a 96-well plate to an amount of 1 to 2×10^4 cells/well. The cells were cultured at 37° C. in the presence of 5% CO2 overnight. Thereafter, the medium was exchanged with a medium containing 0.5% FBS, to which each compound solution (final DMSO concentration: 1%) and 1 μM Vemurafenib had been added, and the cells were then cultured at 37° C. in the presence of 5% CO2 for 72 hours.
Thereafter, the number of viable cells was measured using Cell Counting Reagent (Nacalai Tesque) in accordance with the manufacturer's instructions. Inhibition by the test compound was determined according to the following equation: […]
Hereafter, Inhibition (%) by 3.3 μM compound is shown.

[2] = system: phosphorylated MEK (pMEK) in HL60 cells; assay: Ras-Raf signaling inhibition at culture cell level, pMEK; assay type: cell-based; conditions: Homo sapiens, HL-60; HL60 (N-RasQ61L), 1 μM test compound, 3 hours
Description: The Ras-Raf signaling inhibitory activity of the compound of the present invention at a culture cell level was evaluated by the following method.
The HL60 cells described in Test Example 2 suspended in a medium containing 0.5% (v/v) FBS with each compound solution (final DMSO concentration: 1%), were seeded on a 12-well plate (2 to 4×10^5 cells/well), and the resulting mixture was then cultured at 37° C. in the presence of 5% CO2 for 3 hours.
After completion of the cell culture, proteins were extracted from the cells, using RIPA Buffer (Nacalai Tesque) containing a mixture of protease inhibitors and phosphatase inhibitors. An equivalent amount of protein was separated by standard SDS-PAGE and was then transferred onto a PVDF membrane. In order to detect the activation (phosphorylation) of MEK and ERK, downstream molecules of the Ras-Raf signaling pathway, the membrane was probed with 1000-fold diluted primary antibodies {phosphorylated MEK (pMEK: #9121), phosphorylated ERK (pERK: #9101), total MEK (tMEK: #9122), and total ERK (tERK: 9102); all from Cell signaling}, and then with a 1000-fold diluted horseradish peroxidase-labeled secondary antibody against rabbit immunoglobulin G. The immunoreactive signals were colored with EzWestLumi One (ATTO), and were then detected by Fusion FX (Vilber). Signal intensity was quantified by pixel counting. Inhibition by the test compound was determined according to the following equation: […]

[3] = target: GTPγS-bound human HRasG12V / human c-Raf-1 Ras binding domain (RBD) (Homo sapiens (Human), UniProt P01112, G12V); assay: Ras-Raf binding inhibition ELISA; conditions: anti-HRas antibody C-20; read-out: ELISA IC50 (μM): 1st Ab_C-20
GTPγS-bound human HRasG12V / human c-Raf-1 Ras binding domain (RBD), sequence (P01112 whole entry G12V, the tested form may be a part): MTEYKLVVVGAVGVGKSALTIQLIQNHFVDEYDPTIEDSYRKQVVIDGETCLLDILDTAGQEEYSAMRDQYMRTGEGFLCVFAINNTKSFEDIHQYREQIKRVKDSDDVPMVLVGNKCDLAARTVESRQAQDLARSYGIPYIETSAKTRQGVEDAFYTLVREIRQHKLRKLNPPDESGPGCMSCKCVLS
Outline: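 GST-c-Raf-1 RBD (aa 50-131) immobilized on glutathione plates, then GTPγS-loaded full-length HRasG12V added with compound (final 10% DMSO), 1 h at 30 °C, pH 7.4 Tris buffer. Bound Ras detected by anti-HRas antibody (C-20 or 259) and HRP secondary, TMB read at OD450; IC50 from inhibition.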

IC50 [3]: 3.9 µM
Structure (SMILES): CC(=O)N1/C(=C\c2nc3cc(C(=O)N4CCOCC4)ccc3s2)C(=O)c2ccccc21 [Example 47, (Z)-1-acetyl-2-((5-(morpholine-4-carbonyl)benzo [d]thiazol-2-yl)-methylene)-indolin-3-one]
inhibition at 3.3 µM [1]: 90%
inhibition at 1 µM [2]: 88%
